Experimental data published in patent US10201523B2, “Use of wilforlide A for overcoming chemotherapy resistance” (WESTERN UNIVERSITY OF HEALTH SCIENCES, priority 2013, dated 2019).
“And” between values parts separate entries of the source, which are not always exact repeats. Equal entries are not always repeated.

Tested on: DU145-TxR
Experiment: SRB cell viability assay, docetaxel with/without wilforlide A pretreatment
Type: cell-based
Details: DU145-TxR; for viability at 1 pM / viability at 0.0001 µM / viability at 0.000333 µM / viability at 0.001 µM / viability at 0.00333 µM / viability at 0.01 µM / viability at 0.0333 µM / viability at 0.1 µM: 72 h; for A at 565 nm: background = 0.046
Text: FIG. 4 summarizes the data of Tables 18 and 19 in a graphical format.

[1] = no wilforlide A pre-Tx, docetaxel 0.001 nM 72 h
[2] = no wilforlide A pre-Tx, docetaxel 0.1 nM 72 h
[3] = no wilforlide A pre-Tx, docetaxel 0.333 nM 72 h
[4] = no wilforlide A pre-Tx, docetaxel 1 nM 72 h
[5] = no wilforlide A pre-Tx, docetaxel 3.33 nM 72 h
[6] = no wilforlide A pre-Tx, docetaxel 10 nM 72 h
[7] = no wilforlide A pre-Tx, docetaxel 33.3 nM 72 h
[8] = no wilforlide A pre-Tx, docetaxel 100 nM 72 h
[9] = wilforlide A 2.5 μg/ml pre-Tx, docetaxel 0.001 nM 72 h
[10] = wilforlide A 2.5 μg/ml pre-Tx, docetaxel 0.1 nM 72 h
[11] = wilforlide A 2.5 μg/ml pre-Tx, docetaxel 0.333 nM 72 h
[12] = wilforlide A 2.5 μg/ml pre-Tx, docetaxel 1 nM 72 h
[13] = wilforlide A 2.5 μg/ml pre-Tx, docetaxel 3.33 nM 72 h
[14] = wilforlide A 2.5 μg/ml pre-Tx, docetaxel 10 nM 72 h
[15] = wilforlide A 2.5 μg/ml pre-Tx, docetaxel 33.3 nM 72 h
[16] = wilforlide A 2.5 μg/ml pre-Tx, docetaxel 100 nM 72 h

For `CC(=O)O[C@@]12CO[C@@H]1C[C@H](O)[C@@]1(C)C(=O)[C@H](O)C3=C(C)[C@@H](OC(=O)[C@H](O)[C@@H](NC(=O)OC(C)(C)C)c4ccccc4)C[C@@](O)([C@@H](OC(=O)c4ccccc4)[C@H]21)C3(C)C` [docetaxel], the viability at 1 pM [1] was 100%, the viability at 0.0001 µM [2] was 104% and the viability at 0.000333 µM [3] was 99%. For the same compound, the viability at 0.001 µM [4] was 98.2%, the viability at 0.00333 µM [5] was 98.5% and the viability at 0.01 µM [6] was 101%. It also gave a viability at 0.0333 µM [7] of 99.2%, a viability at 0.1 µM [8] of 97.4% and a viability at 1 pM [9] of 100%. For the same compound, the viability at 0.0001 µM [10] was 104%, the viability at 0.000333 µM [11] was 102% and the viability at 0.001 µM [12] was 104%. For the same compound, the viability at 0.00333 µM [13] was 98.4%, the viability at 0.01 µM [14] was 102% and the viability at 0.0333 µM [15] was 94.1%. The viability at 0.1 µM [16] was 44.7%, the “mean A” value [1] was 2.257 and the “A at 565 nm” value [1] was 2.285 and 2.199 and 2.289. For the same compound, the “mean A” value [2] was 2.346, the “A at 565 nm” value [2] was 2.354 and 2.413 and 2.272 and the “mean A” value [3] was 2.235. For the same compound, the “A at 565 nm” value [3] was 2.281 and 2.251 and 2.175, the “mean A” value [4] was 2.216 and the “A at 565 nm” value [4] was 2.279 and 2.233 and 2.137. For the same compound, the “mean A” value [5] was 2.224, the “A at 565 nm” value [5] was 2.207 and 2.230 and 2.236 and the “mean A” value [6] was 2.272. For the same compound, the “A at 565 nm” value [6] was 2.254 and 2.359 and 2.203, the “mean A” value [7] was 2.239 and the “A at 565 nm” value [7] was 2.145 and 2.270 and 2.303. The “mean A” value [8] was 2.198, the “A at 565 nm” value [8] was 2.153 and 2.224 and 2.217 and the “mean A” value [9] was 2.137. For the same compound, the “A at 565 nm” value [9] was 2.092 and 2.151 and 2.170, the “mean A” value [10] was 2.220 and the “A at 565 nm” value [10] was 2.248 and 2.263 and 2.151. The “mean A” value [11] was 2.169, the “A at 565 nm” value [11] was 2.187 and 2.102 and 2.218 and the “mean A” value [12] was 2.217. For the same compound, the “A at 565 nm” value [12] was 2.177 and 2.229 and 2.246, the “mean A” value [13] was 2.103 and the “A at 565 nm” value [13] was 2.064 and 2.090 and 2.155. For the same compound, the “mean A” value [14] was 2.176, the “A at 565 nm” value [14] was 2.171 and 2.204 and 2.155 and the “mean A” value [15] was 2.011. For the same compound, the “A at 565 nm” value [15] was 2.086 and 2.018 and 1.930, the “mean A” value [16] was 0.956 and the “A at 565 nm” value [16] was 0.987 and 0.926 and 0.957.
